Residues, ends and D or L forms follow the SMILES beside them.
What was measured:
Blood = assay: Induction of blood clotting in chicken serum free blood corpuscles assessed as blood clotting time at 1.5 mM by hayem-method; assay type: functional, Gallus gallus
Plasma = assay: Induction of clotting in chicken plasma assessed as thrombin clotting time at 1.5 mM; assay type: functional, Gallus gallus
[1] = Induction of platelet aggregation in iv dosed Sprague-Dawley rat model of liver injury assessed as reduction in blood loss measured after 30 mins; assay type: functional; parameters: scale not given: the % may be the effect or the level left; conditions: 0.5 h

| Compound | Time (Blood) [s] | Time (Plasma) [s] | Activity [1] [%] |
| --- | --- | --- | --- |
| CC(C)C[C@H](NC(=O)[C@H](Cc1cnc[nH]1)NC(=O)[C@H](Cc1cnc[nH]1)NC(=O)[C@H](CCC(N)=O)NC(=O)[C@@H](N)CCC(N)=O)C(=O)NCC(=O)NCC(=O)N[C@@H](C)C(=O)N[C@@H](CCCCN)C(=O)N[C@@H](CCC(N)=O)C(=O)N[C@@H](C)C(=O)NCC(=O)N[C@@H](CC(=O)O)C(=O)N[C@H](C(=O)O)C(C)C (H-QQHHLGGAKQAGDV-OH) | 51 | 35 | – |
| CC(C)C[C@H](NC(=O)[C@@H](NC(=O)[C@@H](N)CCCNC(=N)N)[C@@H](C)O)C(=O)N[C@@H](C)C(=O)N[C@@H](Cc1ccccc1)C(=O)N[C@H](C(=O)N[C@@H](CCCNC(=N)N)C(=O)N1CCC[C@H]1C(=O)N[C@@H](CCCCN)C(=O)O)C(C)C (H-RTLAFVRPK-OH) | – | – | 60 |

— ChEMBL document CHEMBL4811217, “Peptide-based topical agents and intravenous hemostat for rapid hemostasis” (2020)
